Source: ChEMBL document CHEMBL5370662, “Reactive Oxygen Species-Activated Metal-Free Carbon Monoxide Prodrugs for Targeted Cancer Treatment” (J Med Chem, 2023)
Values belong to the molecule of their own block, whether it stands above or below them. Activity calls are given as the source filed them. No cut-off for these calls is given here.

Columns and labels:
Panc02 [1] = assay: Antiproliferative activity against Panc02 cells assessed as inhibition of cell growth measured after 24 hrs by Cell Counting Kit-8 assay; assay type: functional, cell-based; conditions: Mus musculus
4T1 [2] = assay: Antiproliferative activity against mouse 4T1 cells assessed as inhibition of cell growth measured after 24 hrs by Cell Counting Kit-8 assay; assay type: functional, cell-based; conditions: for IC50: 4T1, 24 h
4T1 [3] = assay: Antitumor activity against mouse 4T1 cells implanted in Balb/c mouse assessed as fold change in tumor volume at 10 mg/kg, iv administered on day 0,3, and 5 measured after 24 days (reference value: 25.5); assay type: functional; conditions: for Activity: time 24.0 day; for fold change (FC): time 24 day
[4] = Prodrug conversion in PBS buffer assessed as carbon monoxide release by measuring half life at pH 7.4 at 25 uM in presence of H2O2 by HPLC analysis; assay type: ADME; conditions: pH 7.4, 25 µM
[5] = Prodrug conversion in PBS buffer assessed as carbon monoxide release by measuring half life at pH 7.4 at 25 uM by HPLC analysis; assay type: ADME; conditions: pH 7.4, 25 µM
[6] = Toxicity in Balb/c mouse implanted with mouse 4T1 cells assessed as increase in survival rate at 10 mg/kg, iv administered on day 0,3, and 5 measured after 24 days (reference value: 27 days); assay type: organism-based; conditions: in vivo, 576 h, time 24 day
[7] = Prodrug conversion in Balb/c mouse implanted with mouse 4T1 cells assessed as carbon monoxide release in tumor by measuring red fluorescence at 10 mg/kg, iv incubated for 6 hrs followed by 1-Ac probe addition by hoechst dye based confocal laser scanning microscopic analysis; assay type: ADME, organism-based; conditions: in vivo
[8] = Prodrug conversion in 1-Ac probed mouse 4T1 cells assessed as carbon monoxide release by measuring red fluorescence at 20 uM incubated for 6 hrs by hoechst dye based confocal laser scanning microscopic analysis; assay type: ADME, cell-based; conditions: 4t1, 6 h
[9] = Toxicity in Balb/c mouse implanted with mouse 4T1 cells assessed as change in body weight at 10 mg/kg, iv administered on day 0,3, and 5 measured after 24 days; assay type: organism-based; conditions: in vivo, 576 h, time 24 day
[10] = Prodrug conversion in PBS buffer assessed as formation of 3',6'-dimethyl-[1,1':2',1''-terphenyl]-4'-carbonitrile by measuring half life at pH 7.4 at 25 uM measured after 24 hrs in presence of H2O2 by HPLC analysis; assay type: ADME; conditions: pH 7.4, 24 h
[11] = Prodrug conversion in PBS buffer assessed as formation of oxidized intermediate by measuring half life at pH 7.4 at 25 uM measured after 24 hrs in presence of H2O2 by HPLC analysis; assay type: ADME; conditions: pH 7.4, 24 h
Panc02 [12] = assay: Antiproliferative activity against Panc02 cells assessed as inhibition of cell growth upto 100 uM measured after 24 hrs by Cell Counting Kit-8 assay; assay type: functional, cell-based; conditions: Mus musculus
4T1 [13] = assay: Antiproliferative activity against mouse 4T1 cells assessed as inhibition of cell growth upto 100 uM measured after 24 hrs by Cell Counting Kit-8 assay; assay type: functional, cell-based

Structure (SMILES): Cc1cc(C=O)c(C)c(-c2ccccc2)c1-c1ccccc1
Activity (Panc02 [1]): inactive
Activity (4T1 [2]): inactive
Activity (4T1 [3]): inactive

t1/2 [4]: 2.2 h
t1/2 [5]: 3 h
Structure (SMILES): Cc1ccc(S[C@H]2C(C=O)[C@]3(C)C(=O)[C@]2(C)C(c2ccccc2)=C3c2ccccc2)cc1 (stereo partly specified)

Structure (SMILES): CCCCCS[C@H]1C(C=O)[C@]2(C)C(=O)[C@]1(C)C(c1ccccc1)=C2c1ccccc1 (stereo partly specified)
Survival [6]: 42 days
Drug metabolism [7]: Metabolite_Detected
Drug metabolism [8]: Metabolite_Detected
IC50 (Panc02 [1]; Panc02, 24 h): 72.5 µM
IC50 (4T1 [2]): 29.4 µM
t1/2 [4]: 3.4 h
fold change (FC) (4T1 [3]): 9.4
t1/2 [5]: 81.6 h
Activity [9]: Non-Toxic

Drug metabolism [7]: Metabolite_Notdetected
Drug metabolism [8]: Metabolite_Notdetected
Structure (SMILES): CCCCCS[C@H]1C(C(=O)OC)[C@]2(C)C(=O)[C@]1(C)C(c1ccccc1)=C2c1ccccc1 (stereo partly specified)
Activity (Panc02 [1]): inactive
Activity (4T1 [2]): inactive
Activity (4T1 [3]): inactive

Drug metabolism [7]: Metabolite_Detected
t1/2 [10]: 12 h
t1/2 [11]: 2 h
Drug metabolism [8]: Metabolite_Detected
IC50 (4T1 [2]): > 100 µM
Structure (SMILES): CCCCCS[C@H]1C(C#N)[C@]2(C)C(=O)[C@]1(C)C(c1ccccc1)=C2c1ccccc1 (stereo partly specified)
fold change (FC) (4T1 [3]): 16.5
Activity (Panc02 [12]): inactive

Structure (SMILES): Cc1cc(C#N)c(C)c(-c2ccccc2)c1-c1ccccc1
Activity (4T1 [13]): inactive
Activity (4T1 [3]): inactive
Activity (Panc02 [12]): inactive

t1/2 [10]: 12 h
t1/2 [11]: 2 h
Structure (SMILES): Cc1ccc(S[C@H]2C(C#N)[C@]3(C)C(=O)[C@]2(C)C(c2ccccc2)=C3c2ccccc2)cc1 (stereo partly specified)
